According to patent US20130137739A1, “SOLID DISPERSION COMPRISING TRIAZOLE COMPOUND” (Astellas Pharma, Inc., priority 2010, published 2013):
In brackets after ≈: the same amount, converted by molar mass. Like-named read-outs stand apart in the source and are kept apart here.

How the values were obtained:
[1] = Solubility of Compound A in water and organic solvents; type: physicochemical
[2] = Glass transition point (Tg) by DSC; type: physicochemical; conditions: Compound A itself
Protocol: The glass transition point of a solid dispersion can be obtained by subjecting the solid dispersion to calorimetric measurements using DSC and plotting a curve of changes in the amount of heat. In more practical terms a sample of about 10 mg is weighed out onto an aluminum pan and calorimetry is carried out for temperatures from 0° C. and 150° C. with a rate of temperature increase of 5° C. per minute. In the process of heating the sample heat is absorbed or generated at the glass transition point and, as a result, the baseline of the calorimetric curve will shift downward. Extended lines are drawn for the two baselines, namely the original baseline and the shifted baseline, and the glass transition temperature is obtained from the intersection point of the ½ line between the two baselines and the calorimetric curve.
Particles of the solid dispersion (about 10 mg) of each example and comparative example were weighed out on an aluminum pan and calorimetric measurements were made at temperatures between 0° C. to 150° C. with a rate of temperature increase of 5° C. per minute. Heat was absorbed or generated at the glass transition point in the course of heating the sample and, as a result, the baseline of the calorimetric curve shifted downward. […]

COc1ccc(-c2nc(OC)nn2-c2ccc(OC)cc2)cc1 [Compound A, 3-methoxy-1,5-bis(4-methoxyphenyl)-1H-1,2,4-triazole]
solubility ([1]; acetone, organic solvent or mixture, room temperature, read-out: solubility in organic solvent: acetone): 82.2 mg/mL (≈ 264 mM) | solubility ([1]; ethanol, organic solvent or mixture, room temperature, read-out: solubility in organic solvent: ethanol): 15.9 mg/mL (≈ 51.1 mM) | solubility ([1]; polyethylene glycol, organic solvent or mixture, room temperature, read-out: solubility in organic solvent: polyethylene glycol): 6.3 mg/mL (≈ 20.2 mM) | solubility ([1]; water, 37° C., read-out: solubility in water): 0.0107 mg/mL (≈ 0.0344 mM) | glass transition point of Compound A [2]: 4 °C
